Source: patent US9120771B2, “Azetidine derivative and antidepressant composition including the same” (KOREA INSTITUTE OF SCIENCE AND TECHNOLOGY, priority 2011, dated 2015)
Structures can show the parent of a compound that is named as a salt. Where two headings read alike, the source gives them in different places.

Tests used:
[1] = biological target: human dopamine transporter (Homo sapiens (Human), UniProt Q01959); test: hDAT binding assay ([3H]WIN35,428); details: for inhibition at 10 µM: read-out: hDAT binding assay %-inhibition (10 uM); for IC50: membrane from CHO-K1 cells, 8 nM [3H]WIN35,428;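 as to all read-outs here: displacement of the radioligand from the transporter membranes, incubated 120 min at 4 °C in Tris-HCl buffer with NaCl, pH 7.4, measured by filter-bound radioactivity counting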
human dopamine transporter, sequence (Q01959 whole entry): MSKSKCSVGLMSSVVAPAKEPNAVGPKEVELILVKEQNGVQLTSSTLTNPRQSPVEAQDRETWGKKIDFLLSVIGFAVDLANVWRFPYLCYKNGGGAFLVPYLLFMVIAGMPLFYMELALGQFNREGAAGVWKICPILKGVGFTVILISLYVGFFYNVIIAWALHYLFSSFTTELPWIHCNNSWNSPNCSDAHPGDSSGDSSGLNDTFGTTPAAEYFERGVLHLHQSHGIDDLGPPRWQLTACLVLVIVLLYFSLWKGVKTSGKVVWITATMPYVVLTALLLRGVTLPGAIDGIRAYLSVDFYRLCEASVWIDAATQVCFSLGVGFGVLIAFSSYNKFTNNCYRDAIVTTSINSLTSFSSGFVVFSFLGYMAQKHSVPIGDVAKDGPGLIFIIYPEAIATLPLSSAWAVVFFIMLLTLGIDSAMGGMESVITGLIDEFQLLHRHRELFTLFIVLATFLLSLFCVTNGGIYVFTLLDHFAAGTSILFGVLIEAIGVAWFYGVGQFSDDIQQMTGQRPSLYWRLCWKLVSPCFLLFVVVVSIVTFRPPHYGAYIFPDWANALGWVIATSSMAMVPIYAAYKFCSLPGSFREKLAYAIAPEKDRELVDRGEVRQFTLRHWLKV

[2] = biological target: human norepinephrine transporter (Homo sapiens (Human), UniProt P23975); test: hNET binding assay ([3H]Nisoxetine); details: for inhibition at 10 µM: read-out: hNET binding assay %-inhibition (10 uM)
human norepinephrine transporter, sequence (P23975 whole entry): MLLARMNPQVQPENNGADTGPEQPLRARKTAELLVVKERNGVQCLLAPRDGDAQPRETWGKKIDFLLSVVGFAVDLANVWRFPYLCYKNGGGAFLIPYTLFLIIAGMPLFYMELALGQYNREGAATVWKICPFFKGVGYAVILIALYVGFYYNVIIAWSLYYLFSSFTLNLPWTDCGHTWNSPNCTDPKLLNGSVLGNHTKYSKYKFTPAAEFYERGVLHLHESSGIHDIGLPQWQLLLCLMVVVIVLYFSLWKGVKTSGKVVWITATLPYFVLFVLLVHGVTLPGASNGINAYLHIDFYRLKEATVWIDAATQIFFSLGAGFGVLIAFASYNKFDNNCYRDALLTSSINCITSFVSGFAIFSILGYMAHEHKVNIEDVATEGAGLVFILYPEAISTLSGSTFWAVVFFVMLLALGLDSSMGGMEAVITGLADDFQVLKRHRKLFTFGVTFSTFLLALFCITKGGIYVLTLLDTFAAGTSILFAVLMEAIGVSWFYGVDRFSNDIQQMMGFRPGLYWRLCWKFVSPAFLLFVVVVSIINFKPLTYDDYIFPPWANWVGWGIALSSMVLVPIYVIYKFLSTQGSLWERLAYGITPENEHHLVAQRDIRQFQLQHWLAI
Protocol: NE transporter binding assay for evaluating binding of the compound to the norepinephrine transporter was carried out using human recombinant norepinephrine transporter membrane (PerkinElmer Life and Analytical Sciences, USA) expressed in MDCK cells and radioisotope [^3H]Nisoxetine (PerkinElmer).
That is, the test drug, 6 nM [^3H]Nisoxetine, norepinephrine transporter membrane (11 ug/well), 120 mM NaCl and 50 mM Tris-HCl buffer (pH 7.4) containing 5 mM KCl were added to obtain a reaction mixture with a final volume of 0.25 ml. After incubation for 60 minutes at 4° C., the mixture was quickly passed through a Filtermat A glass fiber filter pre-soaked with 0.5% (w/v) PEI (polyethyleneimine) using Inotech Harvester (Inotech) to terminate the reaction. After washing with cold washing buffer (50 mM Tris-HCl, pH 7.4, 0.9% NaCl) solution, the filter was covered with MeltiLex and sealed in a sample bag. After drying in an oven, radioactivity was counted using MicroBeta Plus (Wallac).
Non-specific binding was measured in the presence of 1 uM desipramine. The IC50 value of the test drug was calculated from non-linear regression analysis (GraphPad Prism Program, San Diego, USA) of each %-inhibition value obtained from the drug with concentrations of 7th and 8th steps.

[3] = biological target: human serotonin transporter (Homo sapiens (Human), UniProt P31645); test: hSERT binding assay ([3H]Imipramine); details: for inhibition at 10 µM: read-out: hSERT binding assay %-inhibition (10 uM);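 as to all read-outs here: displacement of radiolabeled imipramine from the transporter, incubated 30 min at 27 °C in Tris-HCl pH 7.4 with NaCl and KCl, bound radioactivity counted after filtration, nonspecific binding defined with 200 uM imipramine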
human serotonin transporter, sequence (P31645 whole entry): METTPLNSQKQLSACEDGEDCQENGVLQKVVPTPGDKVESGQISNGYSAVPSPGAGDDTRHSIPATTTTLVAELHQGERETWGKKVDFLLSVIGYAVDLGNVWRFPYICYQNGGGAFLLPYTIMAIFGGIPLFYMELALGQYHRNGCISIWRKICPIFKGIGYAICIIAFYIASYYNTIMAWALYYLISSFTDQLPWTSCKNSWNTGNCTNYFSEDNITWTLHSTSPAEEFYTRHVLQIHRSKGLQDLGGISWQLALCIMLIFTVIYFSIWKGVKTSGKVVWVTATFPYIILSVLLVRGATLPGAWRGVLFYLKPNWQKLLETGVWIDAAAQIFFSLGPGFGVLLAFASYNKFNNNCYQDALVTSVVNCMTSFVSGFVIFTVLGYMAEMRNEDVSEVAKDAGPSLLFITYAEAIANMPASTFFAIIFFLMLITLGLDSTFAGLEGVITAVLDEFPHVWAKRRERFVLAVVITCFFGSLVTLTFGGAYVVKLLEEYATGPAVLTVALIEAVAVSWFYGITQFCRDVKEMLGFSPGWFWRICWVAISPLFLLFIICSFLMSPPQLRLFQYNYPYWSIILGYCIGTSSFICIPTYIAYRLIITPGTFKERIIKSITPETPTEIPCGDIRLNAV

[4] = 10 uM, membrane from MDCK cells
[5] = 10 uM, membrane from HEK293 cells
[6] = membrane from HEK293 cells, 2 nM [3H]Imipramine
[7] = membrane from MDCK cells, 6 nM [3H]Nisoxetine

| Compound | melting point [°C] | also measured |
| --- | --- | --- |
| Cc1cccc(OC(c2ccc3ccccc3c2)C2CNC2)c1.Cl (stereo not shown) | 210 | – |
| Cc1ccccc1OC(c1ccc(F)c(F)c1)C1CNC1.Cl (stereo not shown) | 151 | – |
| Cl.Fc1ccc(OC(c2ccc3ccccc3c2)C2CNC2)cc1 (stereo not shown) | 214 | – |
| Cl.Fc1cc(C(Oc2ccccc2OC(F)(F)F)C2CNC2)ccc1Cl (stereo not shown) | 166 | – |
| COC(c1ccc(Cl)cc1)C1CNC1.Cl (stereo not shown) [KHG26753, 3-((4-chlorophenyl)(methoxy)methyl)azetidine hydrochloride] | 281 | inhibition at 10 µM [1]: 58%; inhibition at 10 µM [2, 4]: 52%; inhibition at 10 µM [3, 5]: 95%; IC50 [3, 6]: 42.9 nM |
| Cc1ccccc1OC(c1ccc(Cl)c(F)c1)C1CNC1.Cl (stereo not shown) | 205 | – |
| Cl.FC(F)(F)Oc1cccc(OC(c2ccc3ccccc3c2)C2CNC2)c1 (stereo not shown) | 217 | – |
| Cl.Fc1cccc(OC(c2ccc3ccccc3c2)C2CNC2)c1 (stereo not shown) | 216 | – |
| CCCOC(c1ccc(F)c(F)c1)C1CNC1.Cl (stereo not shown) | 116 | – |
| CCOC(c1ccc(Cl)c(F)c1)C1CNC1.Cl (stereo not shown) | 215 | – |
| Cl.Fc1cccc(OC(c2ccc(Cl)c(F)c2)C2CNC2)c1 (stereo not shown) | 217 | – |
| Cl.Clc1cccc(OC(c2ccc3ccccc3c2)C2CNC2)c1 (stereo not shown) | 214 | – |
| Cl.Fc1ccc(C(Oc2ccccc2F)C2CNC2)cc1F (stereo not shown) | 187 | – |
| Cl.c1ccc(OC(c2ccc3ccccc3c2)C2CNC2)cc1 (stereo not shown) | 218 | – |
| Cl.Fc1cc(C(Oc2ccccc2F)C2CNC2)ccc1Cl (stereo not shown) | 198 | – |
| Cl.Clc1ccc(OC(c2ccc3ccccc3c2)C2CNC2)cc1Cl (stereo not shown) | 217 | – |
| Cl.Clc1ccccc1OC(c1ccc2ccccc2c1)C1CNC1 (stereo not shown) | 207 | – |
| Cl.Fc1cc(C(Oc2cccc(OC(F)(F)F)c2)C2CNC2)ccc1Cl (stereo not shown) | 145 | – |
| CCCOC(c1ccc(Cl)c(Cl)c1)C1CNC1.Cl (stereo not shown) | 151 | – |
| Cl.FC(F)(F)Oc1ccccc1OC(c1ccc2ccccc2c1)C1CNC1 (stereo not shown) | 228 | – |
| Cc1cccc(OC(c2ccc(F)c(F)c2)C2CNC2)c1.Cl (stereo not shown) | 189 | – |
| Cl.OC(c1ccccc1)C1CNC1 (stereo not shown) | 223 | – |
| Cl.FC(F)(F)Oc1cccc(OC(c2ccc(Cl)c(Cl)c2)C2CNC2)c1 (stereo not shown) | 208 | – |

| Compound | melting point [°C] | also measured |
| --- | --- | --- |
| Cl.FC(F)(F)Oc1ccccc1OC(c1ccc(Cl)c(Cl)c1)C1CNC1 (stereo not shown) | 225 | – |
| Cl.Fc1cc(C(OCc2ccccc2)C2CNC2)ccc1Cl (stereo not shown) | 191 | – |
| CCOC(c1ccc2ccccc2c1)C1CNC1.Cl (stereo not shown) | 205 | – |
| COC(c1ccc(Cl)c(Cl)c1)C1CNC1.Cl (stereo not shown) [KHG26756, 3-((3,4-dichlorophenyl)(methoxy)methyl)azetidine hydrochloride] | 109 | inhibition at 10 µM [1]: 54%; inhibition at 10 µM [2, 4]: 85%; IC50 [2, 7]: 339 nM; inhibition at 10 µM [3, 5]: 79%; IC50 [3, 6]: 271 nM |
| Cl.Clc1ccc(C(Oc2ccccc2Cl)C2CNC2)cc1Cl (stereo not shown) | 197 | – |
| Cc1ccccc1OC(c1ccc2ccccc2c1)C1CNC1.Cl (stereo not shown) | 213 | – |
| Cc1ccc(OC(c2ccc3ccccc3c2)C2CNC2)cc1.Cl (stereo not shown) | 203 | – |
| Cl.Fc1ccc(C(Oc2ccccc2Cl)C2CNC2)cc1F (stereo not shown) | 174 | – |
| Cl.Fc1ccc(OC(c2ccc3ccccc3c2)C2CNC2)cc1F (stereo not shown) | 212 | – |
| Cl.Fc1ccccc1OC(c1ccc2ccccc2c1)C1CNC1 (stereo not shown) | 211 | – |
| CCOC(c1ccc(Cl)c(Cl)c1)C1CNC1.Cl (stereo not shown) [KHG26757, 3-((3,4-dichlorophenyl)(ethoxy)methyl)azetidine hydrochloride] | 156 | inhibition at 10 µM [1]: 58%; IC50 [2]: 153 nM; inhibition at 10 µM [2]: 86%; IC50 [3]: 97.5 nM; inhibition at 10 µM [3]: 83% |
| Cl.FC(F)(F)Oc1ccc(OC(c2ccc3ccccc3c2)C2CNC2)cc1 (stereo not shown) | 209 | – |
| CCOC(c1ccccc1)C1CNC1.Cl (stereo not shown) | 205 | – |
| Cl.Clc1ccc(OC(c2ccc(Cl)c(Cl)c2)C2CNC2)cc1Cl (stereo not shown) | 208 | – |
| CCOC(c1ccc(Cl)cc1)C1CNC1.Cl (stereo not shown) [KHG26754, 3-((4-chlorophenyl)(ethoxy)methyl)azetidine hydrochloride] | 190 | IC50 [1]: 1950 nM; inhibition at 10 µM [1]: 76%; inhibition at 10 µM [2, 4]: 91%; IC50 [2, 7]: 666 nM; inhibition at 10 µM [3, 5]: 95%; IC50 [3, 6]: 120 nM |
| Cl.Fc1cc(C(Oc2ccccc2Cl)C2CNC2)ccc1Cl (stereo not shown) | 220 | – |
| Clc1ccc(C(Oc2ccccc2)C2CNC2)cc1Cl (stereo not shown) (as salt: hydrochloride) [KHG26767, 3-((3,4-dichlorophenyl)(phenoxy)methyl)azetidine hydrochloride] | 175 | – |
| Cc1cccc(OC(c2ccc(Cl)c(F)c2)C2CNC2)c1.Cl (stereo not shown) | 203 | – |
| COC(c1ccccc1)C1CNC1.Cl (stereo not shown) | 228 | – |
| Cl.Fc1ccc(C(Oc2ccccc2OC(F)(F)F)C2CNC2)cc1Cl (stereo not shown) | 157 | – |
| CCCOC(c1ccc2ccccc2c1)C1CNC1.Cl (stereo not shown) | 223 | – |
| Cl.O=C(OC(c1ccccc1)C1CNC1)c1ccccc1 (stereo not shown) [KHG26771, azetidine-3-yl(phenyl)methyl benzoate hydrochloride] | 215 | IC50 [1]: 1680 nM; inhibition at 10 µM [1]: 77%; inhibition at 10 µM [2, 4]: 54%; IC50 [3]: 402 nM; inhibition at 10 µM [3]: 92% |
| Cl.c1ccc(C(Oc2ccc3ccccc3c2)C2CNC2)cc1 (stereo not shown) | 183 | – |

More lines, main results first:

| melting point [°C] | Compound | also measured |
| --- | --- | --- |
| 218 | Cl.Fc1ccc(OC(c2ccc(Cl)c(F)c2)C2CNC2)cc1 (stereo not shown) | – |
| 203 | Cl.Fc1cc(C(Oc2ccc(Cl)cc2)C2CNC2)ccc1Cl (stereo not shown) | – |
| 201 | Cl.Clc1ccc(OC(c2ccc(Cl)c(Cl)c2)C2CNC2)cc1 (stereo not shown) | – |
| 218 | Cl.Fc1cccc(OC(c2ccc(Cl)c(Cl)c2)C2CNC2)c1 (stereo not shown) | – |
| 151 | Cc1cccc(OC(c2ccc(F)c(Cl)c2)C2CNC2)c1.Cl (stereo not shown) | – |
| 201 | Cl.Fc1cc(C(Oc2ccccc2)C2CNC2)ccc1Cl (stereo not shown) | – |
| 152 | Cl.Fc1ccc(C(Oc2cccc(Cl)c2)C2CNC2)cc1F (stereo not shown) | – |
| 187 | Cl.Fc1ccc(OC(c2ccc(F)c(Cl)c2)C2CNC2)cc1F (stereo not shown) | – |
| 204 | Cl.Fc1cc(C(Oc2cccc(Cl)c2)C2CNC2)ccc1Cl (stereo not shown) | – |
| 173 | Cc1ccc(OC(c2ccc(Cl)c(F)c2)C2CNC2)cc1.Cl (stereo not shown) | – |
| 183 | Cc1ccc(OC(c2ccc(F)c(Cl)c2)C2CNC2)cc1.Cl (stereo not shown) | – |
| 240 | Cl.Fc1ccc(OC(c2ccc(Cl)c(Cl)c2)C2CNC2)cc1F (stereo not shown) | – |
| 208 | Cl.Fc1ccc(C(Oc2ccccc2)C2CNC2)cc1Cl (stereo not shown) | – |
| 159 | Cc1ccc(OC(c2ccc(F)c(F)c2)C2CNC2)cc1.Cl (stereo not shown) | – |
| 186 | Cl.Fc1ccc(C(Oc2ccc(Cl)c(Cl)c2)C2CNC2)cc1Cl (stereo not shown) | – |
| 211 | Cl.Fc1ccc(OC(c2ccc(F)c(Cl)c2)C2CNC2)cc1 (stereo not shown) | – |

| melting point [°C] | Compound | also measured |
| --- | --- | --- |
| 216 | Cl.Fc1ccc(OC(c2ccc(Cl)c(F)c2)C2CNC2)cc1F (stereo not shown) | – |
| 218 | Cl.Fc1ccc(C(Oc2ccc(Cl)cc2)C2CNC2)cc1Cl (stereo not shown) | – |
| 169 | Cl.Clc1cccc(OC(c2ccc(Cl)c(Cl)c2)C2CNC2)c1 (stereo not shown) | – |
| 224 | Cl.Fc1ccccc1OC(c1ccc(Cl)c(Cl)c1)C1CNC1 (stereo not shown) | – |
| 217 | Cl.FC(F)(F)Oc1ccc(OC(c2ccc(Cl)c(Cl)c2)C2CNC2)cc1 (stereo not shown) | – |
| 151 | Cl.Fc1cc(C(Oc2ccc(OC(F)(F)F)cc2)C2CNC2)ccc1Cl (stereo not shown) | – |
| 157 | Cl.Fc1ccc(C(Oc2cccc(OC(F)(F)F)c2)C2CNC2)cc1Cl (stereo not shown) | – |
| 188 | Cl.Fc1ccc(OC(c2ccc(F)c(F)c2)C2CNC2)cc1 (stereo not shown) | – |
| 205 | Cl.Fc1ccc(C(Oc2cccc(Cl)c2)C2CNC2)cc1Cl (stereo not shown) | – |
| 192 | Cl.Fc1cc(C(Oc2ccc(Cl)c(Cl)c2)C2CNC2)ccc1Cl (stereo not shown) | – |
| 211 | Cl.Clc1ccc(OC(c2ccc3ccccc3c2)C2CNC2)cc1 (stereo not shown) | – |
| 188 | Cl.Fc1ccc(C(Oc2ccccc2Cl)C2CNC2)cc1Cl (stereo not shown) | – |
| 194 | Cl.Fc1ccc(C(Oc2ccccc2F)C2CNC2)cc1Cl (stereo not shown) | – |
| 210 | Cl.Fc1ccc(OC(c2ccc(Cl)c(Cl)c2)C2CNC2)cc1 (stereo not shown) | – |
| 209 | Cc1ccccc1OC(c1ccc(F)c(Cl)c1)C1CNC1.Cl (stereo not shown) | – |
| 209 | Cl.Fc1cccc(OC(c2ccc(F)c(Cl)c2)C2CNC2)c1 (stereo not shown) | – |
